Measured values reported in patent publication EP4803519A1, “NOVEL PRMT5 INHIBITOR AND USE THEREOF” (Shanghai Apeiron Therapeutics Company Limited, priority 2023, dated 2025).

Columns and labels:
Assay type in all cases: cell-based
[1] = test system: HCT-116 MTAP(-/-)deleted cells; assay: Inhibitory activity on proliferation of HCT-116 MTAP(-/-)deleted cells (Cell-Titer Glo); details: Homo sapiens, 144 h, incubated 6 d, 0-1,000 nM
Summary of the method: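 HCT-116 MTAP(-/-) cells in RPMI 1640 with 10% FBS were seeded overnight, then exposed to compound (10 points, 2.5-fold dilutions from 1,000 nM; 0.2% DMSO) for 6 d at 37 °C. Viability was read by CellTiter-Glo luminescence.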

[2] = test system: HCT-116 wild-type cells; assay: Inhibitory activity on proliferation of HCT-116 wild-type cells (Cell-Titer Glo); details: Homo sapiens, 144 h, incubated 6 d, 0-10,000 nM
Summary of the method: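 HCT-116 wild-type cells in RPMI-1640 with 10% FBS were plated overnight, then exposed to compound for 6 d at 37°C (0–10,000 nM final, 2.5-fold, 10 points, 0.2% DMSO). Viability was read by Cell-Titer Glo luminescence.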

[3] = test system: LU99 MTAP(-/-)deleted cells; assay: Inhibitory activity on proliferation of LU99 MTAP(-/-)deleted cells (Cell-Titer Glo); details: Homo sapiens, Lu-99, 144 h, incubated 6 d, 0-1,000 nM
Method: (§1) Materials and cells: LU99 MTAP deleted cell line was purchased from Kyinno Biotechnology (China); cell culture medium and fetal bovine serum were purchased from Thermo Fisher Scientific (USA); 384-well plates were purchased from PerkinElmer (USA); Cell-Titer Glo kits were purchased from Promega (USA).
Cell culture: LU99 MTAP(-/-)deleted cells were cultured with medium containing 10% fetal bovine serum at 37°C in 5% carbon dioxide. Only cells in the logarithmic growth phase could be used for the test.
(§2) Test of inhibitory activity on cell proliferation: The Cell-Titer Glo kit was used to test the proliferation inhibitory activity of the compounds on LU99 MTAP(-/-)deleted cells. The cell concentration was adjusted, rendering that cells were inoculated into a 384-well plate at 40 µL per well and incubated overnight at 37°C and 5% carbon dioxide. 40 nL of the compound was added to each well to reach a final concentration of 0-1,000 nM (starting concentration 1,000 nM, 2.5-fold dilution, 10 points), and the cell plate with 0.2% DMSO content was incubated at 37°C and 5% carbon dioxide for 6 d. 40 µL of Cell-Titer Glo reagent was added to test cell viability.

[4] = test system: LU99 MTAP overexpressing cells; assay: Inhibitory activity on proliferation of LU99 MTAP overexpressing cells (Cell-Titer Glo); details: Homo sapiens, Lu-99, 144 h, incubated 6 d, 0-10,000 nM
Method: as §1, with “overexpressing” for “deleted”
Cell culture: LU99 MTAP overexpressing cells were cultured with medium containing 10% fetal bovine serum at 37°C in 5% carbon dioxide. Only cells in the logarithmic growth phase could be used for the test.
as §2, with “MTAP overexpressing” for “MTAP(-/-)deleted”, “0-10,000” for “0-1,000”, “10,000” for “1,000”

Cc1nn(C)c2c1c(N)nc1ccc(C(=O)N(C)[C@@H]3COC(C)(C)c4cc(C(F)(F)F)ccc43)cc12 [Example 35, (S)-4-amino-N-(1,1-dimethyl-7-(trifluoromethyl)isochroman-4-yl)-N,1,3-trimethyl-1H-pyrazolo[4,3-c]quinoline-8-carboxamide]
IC50 [1]: 15 nM
IC50 [2]: 2100 nM
IC50 [3]: 24.2 nM
IC50 [4]: 858 nM

CN(C(=O)c1ccc2nc(N)c3ncncc3c2c1)[C@@H]1COC(C)(C)c2cc(C(F)(F)F)ccc21 [Example 36, N-[(4S)-1,1-dimethyl-7-(trifluoromethyl)isochroman-4-yl](5-aminopyrimido[4,5-c]quinolin-9-yl)-N-methylformamide]
IC50 [1]: 95.1 nM
IC50 [2]: 2840 nM
IC50 [3]: 116 nM
IC50 [4]: 668 nM

CN(C(=O)c1ccc2nc(N)c3cnccc3c2c1)[C@@H]1COC(C)(C)c2cc(C(F)(F)F)ccc21 [Example 37, (S)-5-amino-N-(1,1-dimethyl-7-(trifluoromethyl)isochroman-4-yl)-N-methylbenzo[c][2,7]naph thyridine-9-carboxamide]
IC50 [1]: 33.4 nM
IC50 [2]: 4100 nM
IC50 [3]: 36.4 nM
IC50 [4]: 810 nM

CN(C(=O)c1cc2c(cc1C(F)(F)F)nc(N)c1cnn(C)c12)[C@@H]1COC(C)(C)c2cc(C(F)(F)F)ccc21 [Example 38, N-[(4S)-1,1-dimethyl-7-(trifluoromethyl)isochroman-4-yl] [4-amino-1-methyl-7-(trifluoromethyl)pyrazolo[4,5-c]quinolin-8-yl]-N-methylformamide]
IC50 [1]: 8.1 nM
IC50 [2]: 1470 nM
IC50 [3]: 15 nM
IC50 [4]: 2050 nM

CN(C(=O)c1ccc2nc(N)c3cnn(C)c3c2c1)C1COC(C)(C)c2nc(C(F)(F)F)ccc21 (centres unmarked) [Example 39]
IC50 [1]: 5.2 nM
IC50 [2]: 1140 nM
IC50 [3]: 8.4 nM
IC50 [4]: 1290 nM

CN(C(=O)c1cc2c3c(c(N)nc2cn1)COC3)C1COC2(CC2)c2cc(C(F)(F)F)ccc21 (centres unmarked) [Example 40, 4-Amino-N-methyl-N-(7'-(trifluoromethyl)spiro[cyclopropane-1,1'-isochroman]-4'-yl)-1,3-dihydrofuro[3,4-c][1,7]naphthyridine-8-carboxamide]
IC50 [1]: 13 nM
IC50 [2]: 2200 nM
IC50 [3]: 21.2 nM
IC50 [4]: 2040 nM

CN(C(=O)c1ccc2nc(N)c3cnn(C)c3c2c1)[C@@H]1COC(C)(C)c2cc(-c3cncc(C(F)(F)F)c3)ccc21 [Example 41, (S)-4-amino-N-(1,1-dimethyl-7-(5-(trifluoromethyl)pyridin-3-yl)isochroman-4-yl)-N,1-dimethyl-1H-pyrazolo[4,3-c]quinoline-8-carboxamide]
IC50 [1]: 4.6 nM
IC50 [2]: 1030 nM
IC50 [3]: 6.1 nM
IC50 [4]: 1860 nM

CN(C(=O)c1ccc2nc(N)c3cnn(C)c3c2c1)[C@@H]1COC(C)(C)c2cc(-c3cscn3)ccc21 [Example 42, N-((4S)-1,1-dimethyl-7-(1,3-thiazol-4-yl)isochroman-4-yl)(4-amino-1-methylpyrazolo[4,5-c]quinolin-8-yl)-N-methylformamide]
IC50 [1]: 4.4 nM
IC50 [2]: 1760 nM
IC50 [3]: 6.1 nM
IC50 [4]: 1140 nM

CN(C(=O)c1ccc2nc(N)c3cnn(C)c3c2c1)C1COC(C)(C)c2cc(C(F)(F)F)ncc21 (centres unmarked) [Example 43, (4-Amino-1-methylpyrazolo[4,5-c]quinolin-8-yl)-N-[1,1-dimethyl-7-(trifluoromethyl)(1,4-dihydro-3H-pyrano[4,5-c]pyridin-4-yl)]-N-methylformamide]
IC50 [1]: 9.4 nM
IC50 [2]: 2130 nM
IC50 [3]: 12.3 nM
IC50 [4]: 2570 nM

CN(C(=O)c1cc2c3c(c(N)nc2cn1)COC3)[C@@H]1COC2(CCC2)c2cc(C(F)(F)F)ccc21 [Example 44, (S)-4-amino-N-methyl-N-(7'-(trifluoromethyl)spiro[cyclobutane-1,1'-isochroman]-4'-yl)-1,3-dihydrofuro[3,4-c][1,7]naphthyridine-8-carboxamide]
IC50 [1]: 7.9 nM
IC50 [2]: 837 nM
IC50 [3]: 12.2 nM
IC50 [4]: 673 nM

CN(C(=O)c1cc2c3c(c(N)nc2cn1)COC3)[C@H]1COC2(CCC2)c2cc(C(F)(F)F)ccc21 [Example 45, (R)-4-amino-N-methyl-N-(7'-(trifluoromethyl)spiro[cyclobutane-1,1'-isochroman]-4'-yl)-1,3-dihydrofuro[3,4-c][1,7]naphthyridine-8-carboxamide]
IC50 [1]: 874 nM
IC50 [2]: > 10000 nM
IC50 [3]: 944 nM
IC50 [4]: > 10000 nM

CN(C(=O)c1ccc2nc(N)c3cnn(C)c3c2c1)C1COC(C)(C)c2cc(-c3cccc4c3cnn4C)ccc21 (centres unmarked) [Example 46, 4-amino-N-(1,1-dimethyl-7-(1-methyl-1H-indazol-4-yl)isochroman-4-yl)-N,1-dimethyl-1H-pyrazolo[4,3-c]quinoline-8-carboxamide]
IC50 [1]: 4.3 nM
IC50 [2]: 1100 nM
IC50 [3]: 7.9 nM
IC50 [4]: 1050 nM

CN(C(=O)c1ccc2nc(N)c3cnn(C)c3c2c1)C1COC(C)(C)c2cc(-n3cc(C(F)(F)F)cn3)ccc21 (centres unmarked) [Example 47, 4-amino-N-(1,1-dimethyl-7-(4-(trifluoromethyl)-1H-pyrazol-1-yl)isochroman-4-yl)-N,1-dimethyl-1H-pyrazolo[4,3-c]quinoline-8-carboxamide]
IC50 [1]: 5.9 nM
IC50 [2]: 1600 nM
IC50 [3]: 7.5 nM
IC50 [4]: 1380 nM

CN(C(=O)c1ccc2nc(N)c3cnn(C)c3c2c1)[C@@H]1COC(C)(C)c2cc(N3CC4(COC4)C3)ccc21 [Example 49, (S)-4-amino-N-(1,1-dimethyl-7-(2-oxa-6-azaspiro[3.3]heptan-6-yl)isochroman-4-yl)-N,1-dimethyl-1H-pyrazolo[4,3-c]quinoline-8-carboxamide]
IC50 [1]: 7.9 nM
IC50 [2]: 3850 nM
IC50 [3]: 19.2 nM
IC50 [4]: 5890 nM

CN(C(=O)c1ccc2nc(N)c3cnn(C)c3c2c1)[C@@H]1COC(C)(C)c2nc(C(F)(F)F)ccc21 [Example 50]
IC50 [1]: 413 nM
IC50 [2]: > 10000 nM
IC50 [3]: 525 nM
IC50 [4]: 7400 nM

CN(C(=O)c1ccc2nc(N)c3cnn(C)c3c2c1)[C@H]1COC(C)(C)c2nc(C(F)(F)F)ccc21 [Example 51]
IC50 [1]: 3.1 nM
IC50 [2]: 447 nM
IC50 [3]: 4.9 nM
IC50 [4]: 711 nM

CN1CCN(c2ccc3c(c2)C(C)(C)OCC3N(C)C(=O)c2ccc3nc(N)c4cnn(C)c4c3c2)CC1 (centres unmarked) [Example 80]
IC50 [1]: 9.4 nM
IC50 [2]: 3850 nM
IC50 [3]: 16.8 nM
IC50 [4]: 3660 nM

CN(C(=O)c1ccc2nc(N)c3cnn(C)c3c2c1)[C@@H]1COC(C)(C)c2cc(N3CCNCC3)ccc21 [Example 83]
IC50 [1]: 103 nM
IC50 [2]: 10500 nM
IC50 [3]: 102 nM
IC50 [4]: 12700 nM

CN(C(=O)c1ccc2nc(N)c3cnn(C)c3c2c1)[C@@H]1COC2(CCC2)c2cc(C(F)(F)F)ncc21 [Example 84, N-[(4S)-7-(trifluoromethyl)spiro[1,4-dihydro-3H-pyrano[4,5-c]pyridine-1,1'-cyclobutan]-4-yl](4-amino-1-methylpyrazolo[4,5-c]quinolin-8-yl)-N-methylformamide]
IC50 [1]: 6.7 nM
IC50 [2]: 1370 nM
IC50 [3]: 10 nM
IC50 [4]: 1640 nM

CN(C(=O)c1ccc2nc(N)c3cnn(C)c3c2c1)[C@@H]1COC(C)(C)c2cc(N3CCn4cncc4C3)ccc21 [Example 86, N-((4S)-7-imidazo[5,1-c]piperazin-7-yl-1,1-dimethylisochroman-4-yl)(4-amino-1-methylpyrazolo[4,5-c]quinolin-8-yl)-N-methylformamide]
IC50 [1]: 21.6 nM
IC50 [2]: 3790 nM
IC50 [3]: 31 nM
IC50 [4]: 7870 nM
